In PMC9377102, “Toxicity and toxicokinetics of the ethanol extract of Zuojin formula” (BMC Complementary Medicine and Therapies, 2022):
Where two headings read alike, the source gives them in different places.

Key:
[1] = Toxicokinetics test in the satellite groups (UPLC-MS/MS of rat plasma); type: in vivo
Protocol: SD rats (5 ~ 6 weeks, 3/group/sex) were randomly allocated to three treatment groups and given the same dosage as those in the repeated toxicity experiment for 28 days. […] Carbamazepine was chosen as the internal standard (IS). The blood samples were centrifuged to obtain plasma. Then, 300 μL of acetonitrile containing 40 ng of IS was added to 100 μL of plasma. After vortexing for 1 min, the mixture was centrifuged at 17,000 rpm for 15 min at 4 °C. The supernatant of each sample was injected into a UPLC–MS/MS system for determination. The injection volume was 1 μL. UPLC–MS analysis was performed on a Thermo Fisher Scientific Ultimate 3000 UPLC system (San Jose, USA) and an API 4000 QTRAP mass spectrometer (Foster City, USA) equipped with an ESI source. The mobile phase consisted of 2 solvents: (A) water containing 0.1% formic acid and (B) 100% acetonitrile. For MS, multiple reaction monitoring (MRM) in positive ion mode was used as the scanning mode for the main components and IS in the plasma samples. The dwell time (DT), collision energy (CE), quadrupole 1 pre-rod bias (Q1) and quadrupole 3 pre-rod bias (Q3) are listed in Table 3.

[2] = system: CYP3A4, CYP1A2 and CYP2D6; conditions: cited from earlier work
[3] = system: CYP3A4, CYP1A2 and CYP2D6; conditions: cited from earlier work; remark: listed apart in the source
[4] = system: diarrhoea-predominant irritable bowel syndrome; conditions: rats, 50 and 100 mg/kg for 14 days; cited from earlier work
[5] = cited from earlier work
spleen = conditions: mice, intraperitoneal injection 10 mg/kg; cited from earlier work
[6] = system: thyroid hormone-induced diarrhoea; conditions: rats, 60 mg/kg oral gavage for 7 days; cited from earlier work
[7] = system: CD4+ Th, CD4+CXCR5+ Tfh cells and Foxp3+ Tregs; conditions: mice, intraperitoneal injection 1 mg/kg; cited from earlier work
[8] = female rats, Day 1, high dose TAZF 3.7 g/kg by gavage
[9] = female rats, Day 1, highest dose (berberine 72.08, epiberberine 7.42, coptisine 7.42, palmatine 18.26, jatrorrhizine 2.80, columbamine 5.93 mg/kg)
[10] = female rats, Day 1, low dose TAZF 0.4 g/kg by gavage
[11] = female rats, Day 1, lowest dose (berberine 8.01, epiberberine 0.82, coptisine 1.38, palmatine 2.03, jatrorrhizine 0.31, columbamine 0.66 mg/kg)
[12] = female rats, Day 1, middle dose (berberine 24.03, epiberberine 2.47, coptisine 2.47, palmatine 6.09, jatrorrhizine 0.93, columbamine 1.98 mg/kg)
[13] = female rats, Day 28, high dose TAZF 3.7 g/kg by gavage
[14] = female rats, Day 28, highest dose (berberine 72.08, epiberberine 7.42, coptisine 7.42, palmatine 18.26, jatrorrhizine 2.80, columbamine 5.93 mg/kg)
[15] = female rats, Day 28, low dose TAZF 0.4 g/kg by gavage
[16] = female rats, Day 28, lowest dose (berberine 8.01, epiberberine 0.82, coptisine 1.38, palmatine 2.03, jatrorrhizine 0.31, columbamine 0.66 mg/kg)
[17] = female rats, Day 28, middle dose (berberine 24.03, epiberberine 2.47, coptisine 2.47, palmatine 6.09, jatrorrhizine 0.93, columbamine 1.98 mg/kg)
[18] = male rats, Day 1, high dose TAZF 3.7 g/kg by gavage
[19] = male rats, Day 1, highest dose (berberine 72.08, epiberberine 7.42, coptisine 7.42, palmatine 18.26, jatrorrhizine 2.80, columbamine 5.93 mg/kg)
[20] = male rats, Day 1, low dose TAZF 0.4 g/kg by gavage
[21] = male rats, Day 1, lowest dose (berberine 8.01, epiberberine 0.82, coptisine 1.38, palmatine 2.03, jatrorrhizine 0.31, columbamine 0.66 mg/kg)
[22] = male rats, Day 1, middle dose (berberine 24.03, epiberberine 2.47, coptisine 2.47, palmatine 6.09, jatrorrhizine 0.93, columbamine 1.98 mg/kg)
[23] = male rats, Day 28, high dose TAZF 3.7 g/kg by gavage
[24] = male rats, Day 28, highest dose (berberine 72.08, epiberberine 7.42, coptisine 7.42, palmatine 18.26, jatrorrhizine 2.80, columbamine 5.93 mg/kg)
[25] = male rats, Day 28, low dose TAZF 0.4 g/kg by gavage
[26] = male rats, Day 28, lowest dose (berberine 8.01, epiberberine 0.82, coptisine 1.38, palmatine 2.03, jatrorrhizine 0.31, columbamine 0.66 mg/kg)
[27] = male rats, Day 28, middle dose (berberine 24.03, epiberberine 2.47, coptisine 2.47, palmatine 6.09, jatrorrhizine 0.93, columbamine 1.98 mg/kg)
[28] = female SD rats, pure berberine 90 mg/kg orally, previous study, reference not given
[29] = male rats, pure berberine 90 mg/kg

O=c1c2ccccc2nc2n1CCc1c-2[nH]c2ccccc12 [rutaecarpine]
Level in plasma ([1]; both, SD, rat, in vivo, po): < 0.0005 µg/mL

COc1cc2c(cc1OC)-c1cc3ccc4c(c3c[n+]1CC2)OCO4 [epiberberine]
28-day AUC relative to the first day ([1]; rat, in vivo): 1 to 2 times | Inhibition of CYP3A4, CYP1A2 and CYP2D6 [2]: inhibited

COc1cc2c(cc1OC)-c1cc3ccc(OC)c(OC)c3c[n+]1CC2 [palmatine]
Metabolism by CYP3A4, CYP1A2 and CYP2D6 [3]: metabolized | AUC(0-t) [1, 8]: 0.038 ± 0.01692 µg·h/mL | Cmax [1, 8]: 0.0466 ± 0.02716 µg/mL | Cmax mean [1, 9]: 0.0466 µg/mL | T1/2 mean [1, 9]: 5.18 h | Tmax mean [1, 9]: 0.50 h | AUC(0-t) [1, 10]: 0.01808 ± 0.00407 µg·h/mL | Cmax [1, 10]: 0.02793 ± 0.01397 µg/mL | Cmax mean [1, 11]: 0.02793 µg/mL | T1/2 mean [1, 11]: 5.96 h | Tmax mean [1, 11]: 0.42 h | AUC0-t mean [1, 12]: 0.09031 µg·h/mL | Cmax mean [1, 12]: 0.0776 µg/mL | T1/2 mean [1, 12]: 3.29 h | Tmax mean [1, 12]: 0.83 h | AUC(0-t) [1, 13]: 0.02407 ± 0.01221 µg·h/mL | Cmax [1, 13]: 0.00567 ± 0.00258 µg/mL | Cmax mean [1, 14]: 0.00567 µg/mL | T1/2 mean [1, 14]: 3.98 h | Tmax mean [1, 14]: 0.83 h | AUC(0-t) [1, 15]: 0.11647 ± 0.1382 µg·h/mL | Cmax [1, 15]: 0.05594 ± 0.07288 µg/mL | Cmax mean [1, 16]: 0.05594 µg/mL | T1/2 mean [1, 16]: 80.32 h | Tmax mean [1, 16]: 0.42 h | AUC0-t mean [1, 17]: 0.01465 µg·h/mL | Cmax mean [1, 17]: 0.00416 µg/mL | T1/2 mean [1, 17]: 9.33 h | Tmax mean [1, 17]: 1.33 h | AUC(0-t) [1, 18]: 0.34251 ± 0.06662 µg·h/mL | Cmax [1, 18]: 0.05133 ± 0.01752 µg/mL | Cmax mean [1, 19]: 0.05133 µg/mL | T1/2 mean [1, 19]: 10.38 h | Tmax mean [1, 19]: 3.33 h | AUC(0-t) [1, 20]: 0.23612 ± 0.10355 µg·h/mL | Cmax [1, 20]: 0.05247 ± 0.05273 µg/mL | Cmax mean [1, 21]: 0.05247 µg/mL | T1/2 mean [1, 21]: 12.88 h | Tmax mean [1, 21]: 3.33 h | AUC0-t mean [1, 22]: 0.31868 µg·h/mL | Cmax mean [1, 22]: 0.07153 µg/mL | T1/2 mean [1, 22]: 26.57 h | Tmax mean [1, 22]: 0.67 h | AUC(0-t) [1, 23]: 0.11018 ± 0.0343 µg·h/mL | Cmax [1, 23]: 0.03293 ± 0.02417 µg/mL | Cmax mean [1, 24]: 0.03293 µg/mL | T1/2 mean [1, 24]: 11.01 h | Tmax mean [1, 24]: 4.08 h | AUC(0-t) [1, 25]: 0.03698 ± 0.01855 µg·h/mL | Cmax [1, 25]: 0.0672 ± 0.07482 µg/mL | Cmax mean [1, 26]: 0.0672 µg/mL | T1/2 mean [1, 26]: 12.22 h | Tmax mean [1, 26]: 0.83 h | AUC0-t mean [1, 27]: 0.10221 µg·h/mL | Cmax mean [1, 27]: 0.02263 µg/mL | T1/2 mean [1, 27]: 2.90 h | Tmax mean [1, 27]: 12.00 h | Systemic exposure after 28 days of administration vs single administration ([1]; rats, oral TAZF): much lower

COc1ccc2cc3[n+](cc2c1OC)CCc1cc2c(cc1-3)OCO2 [berberine]
Metabolism by CYP3A4, CYP1A2 and CYP2D6 [3]: metabolized | Effect on diarrhoea-predominant irritable bowel syndrome [4]: improve diarrhoea-predominant irritable bowel syndrome | AUC0–36 [5, 28]: 0.0888 µg·h/mL | Cmax [5, 28]: 0.0292 µg/mL | AUC0–60 [5, 29]: 0.3058 µg·h/mL | Cmax [5, 29]: 0.0282 µg/mL | Immunosuppressive effect and spleen weight (spleen): strong immunosuppressive effect and reduced spleen weight | AUC(0-t) ([1]; female, SD, rat, plasma, po, 0.4 g/kg, female rats, Day 1, low dose TAZF 0.4 g/kg by gavage, read-out: AUC0-t): 0.122 ± 0.0171 µg·h/mL | Cmax ([1]; female, SD, rat, plasma, po, 0.4 g/kg, female rats, Day 1, low dose TAZF 0.4 g/kg by gavage, read-out: Cmax): 0.149 ± 0.073 µg/mL | AUC(0-t) ([1]; female, SD, rat, plasma, po, 0.4 g/kg, female rats, Day 28, low dose TAZF 0.4 g/kg by gavage, read-out: AUC0-t): 0.838 ± 0.949 µg·h/mL | Cmax ([1]; female, SD, rat, plasma, po, 0.4 g/kg, female rats, Day 28, low dose TAZF 0.4 g/kg by gavage, read-out: Cmax): 0.324 ± 0.432 µg/mL | AUC(0-t) ([1]; female, SD, rat, plasma, po, 3.7 g/kg, female rats, Day 1, high dose TAZF 3.7 g/kg by gavage, read-out: AUC0-t): 0.306 ± 0.0947 µg·h/mL | Cmax ([1]; female, SD, rat, plasma, po, 3.7 g/kg, female rats, Day 1, high dose TAZF 3.7 g/kg by gavage, read-out: Cmax): 0.219 ± 0.118 µg/mL | AUC(0-t) ([1]; female, SD, rat, plasma, po, 3.7 g/kg, female rats, Day 28, high dose TAZF 3.7 g/kg by gavage, read-out: AUC0-t): 0.153 ± 0.0537 µg·h/mL | Cmax ([1]; female, SD, rat, plasma, po, 3.7 g/kg, female rats, Day 28, high dose TAZF 3.7 g/kg by gavage, read-out: Cmax): 0.0238 ± 0.00625 µg/mL | AUC(0-t) ([1]; male, SD, rat, plasma, po, 0.4 g/kg, male rats, Day 1, low dose TAZF 0.4 g/kg by gavage, read-out: AUC0-t): 1.22 ± 0.389 µg·h/mL | Cmax ([1]; male, SD, rat, plasma, po, 0.4 g/kg, male rats, Day 1, low dose TAZF 0.4 g/kg by gavage, read-out: Cmax): 0.222 ± 0.18 µg/mL | AUC(0-t) ([1]; male, SD, rat, plasma, po, 0.4 g/kg, male rats, Day 28, low dose TAZF 0.4 g/kg by gavage, read-out: AUC0-t): 0.699 ± 0.644 µg·h/mL | Cmax ([1]; male, SD, rat, plasma, po, 0.4 g/kg, male rats, Day 28, low dose TAZF 0.4 g/kg by gavage, read-out: Cmax): 0.461 ± 0.276 µg/mL | AUC(0-t) ([1]; male, SD, rat, plasma, po, 3.7 g/kg, male rats, Day 1, high dose TAZF 3.7 g/kg by gavage, read-out: AUC0-t): 1.86 ± 0.425 µg·h/mL | Cmax ([1]; male, SD, rat, plasma, po, 3.7 g/kg, male rats, Day 1, high dose TAZF 3.7 g/kg by gavage, read-out: Cmax): 0.219 ± 0.0244 µg/mL | AUC(0-t) ([1]; male, SD, rat, plasma, po, 3.7 g/kg, male rats, Day 28, high dose TAZF 3.7 g/kg by gavage, read-out: AUC0-t): 0.608 ± 0.203 µg·h/mL | Cmax ([1]; male, SD, rat, plasma, po, 3.7 g/kg, male rats, Day 28, high dose TAZF 3.7 g/kg by gavage, read-out: Cmax): 0.136 ± 0.0779 µg/mL | Systemic exposure after 28 days of administration vs single administration ([1]; rats, oral TAZF): much lower | Effect on thyroid hormone-induced diarrhoea [6]: effect was also observed | Inhibition of CYP3A4, CYP1A2 and CYP2D6 [2]: inhibited | T cell subset levels [7]: reduced levels of CD^4+ Th and CD^4+CXCR^5+ Tfh cells and an increased level of Foxp^3+ Tregs

c1c2c(cc3c1OCO3)-c1cc3ccc4c(c3c[n+]1CC2)OCO4 [coptisine]
Cmax ([1]; male, SD, rat, in vivo, po, 0.4 g/kg): 0.04549 ± 0.05763 µg/mL | Cmax ([1]; male, SD, rat, in vivo, po, 0.4 g/kg, Cmax): 0.0324 ± 0.033 µg/mL | Cmax ([1]; male, SD, rat, in vivo, po, 3.7 g/kg): 0.02005 ± 0.01357 µg/mL | Cmax ([1]; male, SD, rat, in vivo, po, 3.7 g/kg, Cmax): 0.0323 ± 0.00908 µg/mL | Systemic exposure after 28 days of administration vs single administration ([1]; rat, in vivo, po): much lower
